Read-outs that look alike come from different tables or passages of the source.

For one series, the target named is human MCH-1 receptor (Homo sapiens (Human), UniProt Q99705). In words: Binding Assay for Human Melanin-Concentrating Hormone (MCH-1) Receptor. The following applies: membranes of CHO-K1 cells expressing human MCH-1 receptor; for Ki: radioligand displacement, Ki by Cheng Prusoff equation, read-out: MCH1 Ki. As for the experimental part:
Binding Assay for Human Melanin-Concentrating Hormone (MCH-1) Receptor
Evaluation of the affinity of compounds for the human MCH-1 receptor was accomplished using 4-(3,4,5-tritritiumbenzyloxy)-1-(1-(2-(pyrrolidin-1-yl)ethyl)-1H-indazol-5-yl)pyridin-2(1H)-one and membranes prepared from stable CHO-K1 cells expressing the human MCH-1 receptor obtained from Euroscreen (Batch 1138). Cell membrane homogenates (8.92 μg protein) were incubated for 60 min at 25° C. with […] of the [^3H]-labeled compound in the absence or presence of the test compound in 50 mM Tris-HCl buffer, pH 7.4. Nonspecific binding was determined in the presence of 50 μM 1-(5-(4-cyanophenyl)bicyclo[3.1.0]hexan-2-yl)-3-(4-fluoro-3-(trifluoromethyl)phenyl)-1-(3-(4-methylpiperazin-1-yl)propyl)urea. Following incubation, the samples were filtered rapidly under vacuum through Skatron 11731 filters, pre-soaked in 0.5% polyethylenimine, and washed with ice-cold 50 mM Tris-HCl buffer, pH 7.4, (wash setting 9,9,0) using a Skatron cell harvester. The filters were counted for radioactivity in a liquid scintillation counter (Tri-Carb 2100TR, Packard) using a scintillation cocktail (Ultima Gold MV, Perkin Elmer).
The results are expressed as a percent inhibition of the control radioligand specific binding. The IC50 value (concentration causing a half-maximal inhibition of control specific binding) and Hill coefficient (nH) were determined by non-linear regression analysis of the competition curve using Hill equation curve fitting. The inhibition constant (Ki) was calculated from the Cheng Prusoff equation: (Ki=IC50/(1+(L/KD)), where L=concentration of radioligand in the assay, and KD=affinity of the radioligand for the receptor.

Chain of human MCH-1 receptor (Q99705 whole entry): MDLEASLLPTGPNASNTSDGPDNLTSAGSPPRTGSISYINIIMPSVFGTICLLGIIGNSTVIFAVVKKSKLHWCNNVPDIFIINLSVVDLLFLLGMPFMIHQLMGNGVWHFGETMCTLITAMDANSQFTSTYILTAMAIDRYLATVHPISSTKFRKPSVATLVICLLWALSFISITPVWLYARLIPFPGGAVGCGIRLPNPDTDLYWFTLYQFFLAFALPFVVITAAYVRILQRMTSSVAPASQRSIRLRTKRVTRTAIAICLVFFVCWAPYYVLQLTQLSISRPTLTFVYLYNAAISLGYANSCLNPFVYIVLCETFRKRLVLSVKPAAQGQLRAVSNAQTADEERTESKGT

In turn, `CC1Cc2c(c3ccc(N4CCN(CCc5ccc(F)cc5)CC4=O)nc3n2C)CN1.Cl` (stereo not shown) [Example 12, 1-(7,9-Dimethyl-5,7,8,9-tetrahydro-6H-pyrido[3′,4′:4,5]pyrrolo[2,3-b]pyridin-2-yl)-4-(4-fluorophenethyl)piperazin-2-one hydrochloride] returned a melting point of 252 to 256 °C. At human MCH-1 receptor, the Ki came to 58 nM.

In turn, `Cl.O=c1cc(OCc2ccc(F)cn2)ccn1-c1ccc2c(c1)nc1n2CCNC1` [Example 19, 4-((5-Fluoropyridin-2-yl)methoxy)-1-(1,2,3,4-tetrahydropyrazino[1,2-a]benzimidazol-8-yl)pyridin-2(1H)-one hydrochloride] came in with a melting point of 245 to 255 °C. Besides, the inhibition at 1 µM at human MCH-1 receptor (@ 1 uM test compound, read-out: MCH1 percent inhibition of control radioligand specific binding) was 72%.

`CC1Cc2c(c3ccc(-n4ccc(OCc5ccccc5)cc4=O)nc3n2C)CN1.Cl` (stereo not shown) [Example 13, 4-(Benzyloxy)-1-(7,9-dimethyl-5,7,8,9-tetrahydro-6H-pyrido[3′,4′:4,5]pyrrolo[2,3-b]pyridin-2-yl)pyridin-2(1H)-one hydrochloride] yielded a melting point of 285 to 289 °C. The inhibition constant (Ki) on human MCH-1 receptor (hydrochloride) was determined as 9.3 nM.

`CC(=O)N1CCc2c(c3ccc(-n4ccc(OCc5ccccc5)cc4=O)nc3n2C)C1` [Example 11, 1-(6-Acetyl-9-methyl-5,7,8,9-tetrahydro-6H-pyrido[3′,4′:4,5]pyrrolo[2,3-b]pyridin-2-yl)-4-(benzyloxy)pyridin-2(1H)-one] had a melting point of 206 to 208 °C. Moreover, the inhibition constant Ki on human MCH-1 receptor was 71 nM.

On to `CC(=O)N1CCc2c(c3ccc(-n4ccc(-c5ccc(C(F)(F)F)nc5)cc4=O)nc3n2C)C1` [Example 9, 1-(6-Acetyl-9-methyl-5,7,8,9-tetrahydro-6H-pyrido[3′,4′:4,5]pyrrolo[2,3-b]pyridin-2-yl)-4-(6-(trifluoromethyl)pyridin-3-yl)pyridin-2(1H)-one], for which the melting point is 238 to 242 °C. In addition, the Ki on human MCH-1 receptor came to 78 nM.

The values above are taken from patent US8993765B2, “Tetrahydro-azacarboline MCH-1 antagonists, methods of making, and uses thereof” (Albany Molecular Research, Inc., priority 2010, dated 2015).
